This passage reports GI50 and IC50 results from US20090275070A1, “Compounds and Methods of Identifying, Synthesizing, Optimizing and Profiling Protein Modulators” (priority 2005, published 2009).

In experiment [1] the target is T1, Ba/F3 cells expressing p210Bcr-Abl-T315I (Homo sapiens, UniProt P00519, T315I, cells depend on it).
T1 construct: fused on or other part: P11274 (Breakpoint cluster region protein)
The experiment can be described thus: phenoresponse-based cellular assay (cell count and viability), Ba/F3 T315I test cells.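 Also: cells counted by automated microcell imaging, viability scored by trypan blue exclusion, phenoresponse judged against parental Ba/F3 and Ba/F3 carrying wild-type p210Bcr-Abl.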 More on the design: species or system murine. The settings on record: concentration inhibiting growth of the cell line by 50% in the cellular assay, read-out: T315I (IC50 activity category).

Experiment [2] has as its system wild type non-transformed Ba/F3 cells. The experiment can be described thus: phenoresponse-based cellular assay, wild type Ba/F3 control cells. As to conditions: Mus musculus; concentration inhibiting growth of the cell line by 50% in the cellular assay; wt BaF3 control cells; read-out: wt BaF3 (IC50 activity category). More on the design: species or system murine.

Where only a bound is given, the exact number is not on record here.

Usually IC50 stands for the concentration that inhibits the measured activity by half. Regarding `Oc1cccc(Nc2cccc(Nc3ccc(/C=N/Nc4ncc(F)c(N5CCOCC5)n4)nc3)c2)c1`, the GI50 in experiment [1] is less than 1000 nM. The IC50 in experiment [2] is less than 1000 nM.

`O=C(Nc1cccc(C(F)(F)F)c1)c1ccc(/C=N/Nc2ncc(F)c(N3CCOCC3)n2)nc1`: the GI50 in experiment [1] is less than 1000 nM. Besides, in experiment [2], the half-maximal inhibitory concentration (IC50) is less than 10000 nM.

Turning to `Cc1ccc(/C=N/Nc2ncc(F)c(N3CCOCC3)n2)cc1`, the GI50 in experiment [1] is greater than 10000 nM. Moreover, the half-maximal inhibitory concentration (IC50) in experiment [2] was no less than 10000 nM.

Turning to `Fc1cnc(N/N=C/c2ccc(Nc3cccc(C(F)(F)F)c3)cn2)nc1-c1cncc(-c2ccccc2)c1`, the GI50 in experiment [1] is less than 1000 nM. Also, in experiment [2], the IC50 is less than 1000 nM.

Take `CN(/N=C/c1ccc(Nc2cccc(C(F)(F)F)c2)cn1)c1ncc(F)c(N2CCOCC2)n1`: in experiment [1], the GI50 was less than 300 nM. Besides, the IC50 in experiment [2] was less than 300 nM.

Take `Oc1c(Cl)cc(Br)cc1/C=N/Nc1ncc(F)c(N2CCOCC2)n1`: the GI50 in experiment [1] was less than 300 nM. Besides, the IC50 in experiment [2] was less than 1000 nM.

As to `Fc1cnc(N/N=C/c2ccc(Nc3cccc(C(F)(F)F)c3)cn2)nc1-c1cncc(C2CC2)c1`, the GI50 in experiment [1] was less than 10000 nM. Moreover, the 50% inhibitory concentration (IC50) in experiment [2] is less than 10000 nM.

`Fc1cnc(N/N=C/c2ccc(Nc3cccc(C(F)(F)F)c3)cn2)nc1NCCN1CCOCC1`: the GI50 in experiment [1] was less than 300 nM. Besides, in experiment [2], the IC50 is less than 300 nM.

For the compound `Fc1cnc(N/N=C/c2ccc(Nc3ccc(N4CCOCC4)cc3)cn2)nc1N1CCOCC1`, the GI50 in experiment [1] is less than 1000 nM. Also, the concentration for half-maximal inhibition (IC50) in experiment [2] was less than 1000 nM.

With `Fc1cnc(N/N=C/c2ccc(Nc3cccc(C(F)(F)F)c3)cn2)nc1NCC1CC1`, the GI50 in experiment [1] was less than 300 nM. Further, the half-inhibitory concentration (IC50) in experiment [2] was less than 300 nM.

On to `Oc1cccc(-c2ccc(Nc3ccc(/C=N/Nc4ncc(F)c(N5CCOCC5)n4)nc3)cc2)c1`, for which the GI50 in experiment [1] was less than 300 nM. In experiment [2], the half-inhibitory concentration (IC50) was less than 300 nM.

Take `Cc1cccc(Cl)c1-c1ccc(Nc2ccc(/C=N/Nc3ncc(F)c(N4CCOCC4)n3)nc2)cc1`: the GI50 in experiment [1] is less than 300 nM. Further, the IC50 in experiment [2] is less than 300 nM.

Turning to `Fc1cnc(N/N=C/c2ccc(Nc3ccc(-c4ccccn4)c(Cl)c3)cn2)nc1N1CCOCC1`, in experiment [1], the GI50 is less than 1000 nM. Moreover, in experiment [2], the IC50 is less than 1000 nM.

Take `O=C(Nc1cccc(C(F)(F)F)c1)c1cc(Cl)c(O)c(/C=N\Nc2ncc(F)c(N3CCOCC3)n2)c1`: the GI50 in experiment [1] was less than 1000 nM. Also, the IC50 in experiment [2] is less than 1000 nM.

Consider `Fc1cnc(N/N=C/c2ccccn2)nc1N1CCOCC1`, for which, in experiment [1], the GI50 is less than 1000 nM. In experiment [2], the IC50 was less than 1000 nM.

Turning to `Fc1cnc(N/N=C/c2ccccc2)nc1N1CCOCC1`, the GI50 in experiment [1] is greater than 10000 nM. Moreover, in experiment [2], the 50% inhibitory concentration (IC50) was no less than 10000 nM.

For `Fc1cnc(N/N=C/c2ccc(Nc3ccc(-c4cccnc4)cc3)cn2)nc1N1CCOCC1`, the GI50 in experiment [1] was less than 300 nM. Further, the half-inhibitory concentration (IC50) in experiment [2] was less than 1000 nM.

For the compound `Oc1c(Cl)cc(-c2cccc(C(F)(F)F)c2)cc1/C=N/Nc1ncc(F)c(N2CCOCC2)n1`, in experiment [1], the GI50 was less than 300 nM. In addition, the IC50 in experiment [2] was less than 1000 nM.

As for `Cc1cccc(Cl)c1NC(=O)C/C=N/Nc1ncc(F)c(N2CCOCC2)n1`, in experiment [1], the GI50 is greater than 10000 nM. For the same compound, in experiment [2], the IC50 was no less than 10000 nM.

Take `Fc1cnc(N/N=C/c2ccc(Nc3cccc(C(F)(F)F)c3)cn2)nc1NCc1ccccc1`: the GI50 in experiment [1] was less than 300 nM. For the same compound, the IC50 in experiment [2] was less than 300 nM.

On to `O=C(NNc1ncc(F)c(N2CCOCC2)n1)c1ccc(Nc2cccc(C(F)(F)F)c2)cn1`, for which, in experiment [1], the GI50 was less than 1000 nM. The IC50 in experiment [2] was less than 1000 nM.

As for `Cc1cc(Nc2ccc(/C=N/Nc3ncc(F)c(N4CCOCC4)n3)nc2)cc(N2CCNCC2)c1`, in experiment [1], the GI50 is less than 1000 nM. The IC50 in experiment [2] was less than 10000 nM.

Regarding `Oc1cccc(-c2cccc(Nc3ccc(/C=N/Nc4ncc(F)c(N5CCOCC5)n4)nc3)c2)c1`, the GI50 in experiment [1] was less than 300 nM. Moreover, the IC50 in experiment [2] was less than 1000 nM.

In the case of `Oc1ccccc1/C=N/Nc1ncc(F)c(N2CCOCC2)n1`, in experiment [1], the GI50 is less than 10000 nM. For the same compound, the IC50 in experiment [2] was less than 10000 nM.

Turning to `Fc1cnc(N/N=C/c2ccc(Nc3cccc(-n4ccnc4)c3)cn2)nc1N1CCOCC1`, the GI50 in experiment [1] was less than 1000 nM. Also, the half-maximal inhibitory concentration (IC50) in experiment [2] is less than 1000 nM.

In the case of `Oc1ccc(Br)cc1/C=N/Nc1ncc(F)c(N2CCOCC2)n1`, in experiment [1], the GI50 is less than 1000 nM. For the same compound, the IC50 in experiment [2] is less than 1000 nM.

For `CN(C)c1cc(O)cc(Nc2ccc(/C=N/Nc3ncc(F)c(N4CCOCC4)n3)nc2)c1`, the GI50 in experiment [1] is less than 1000 nM. The IC50 in experiment [2] is less than 10000 nM.

In the case of `Cc1cc(Nc2cccc(C(F)(F)F)c2)ccc1/C=N/Nc1ncc(F)c(N2CCOCC2)n1`, in experiment [1], the GI50 was greater than 10000 nM. In experiment [2], the IC50 was no less than 10000 nM.

Consider `O=C(Nc1cccc(C(F)(F)F)c1)c1cccc(/C=N/Nc2ncc(F)c(N3CCOCC3)n2)n1`, for which the GI50 in experiment [1] is greater than 10000 nM. Also, in experiment [2], the half-maximal inhibitory concentration (IC50) is no less than 10000 nM.

Turning to `CC(C(=O)O)c1ccc(Nc2ccc(/C=N/Nc3ncc(F)c(N4CCOCC4)n3)nc2)cc1` (stereo not drawn), the GI50 in experiment [1] is greater than 10000 nM. In addition, the IC50 in experiment [2] was no less than 10000 nM.

On to `Cc1ccccc1/C=N/Nc1ncc(F)c(N2CCOCC2)n1`, for which, in experiment [1], the GI50 was greater than 10000 nM. The half-inhibitory concentration (IC50) in experiment [2] was no less than 10000 nM.

Regarding `Oc1ccc(-c2ccc(Nc3ccc(/C=N/Nc4ncc(F)c(N5CCOCC5)n4)nc3)cc2C(F)(F)F)cc1`, the GI50 in experiment [1] was less than 300 nM. Further, the IC50 in experiment [2] is less than 300 nM.

As for `O=C(C/C=N/Nc1ncc(F)c(N2CCOCC2)n1)Nc1cccc(C(F)(F)F)c1`, in experiment [1], the GI50 was greater than 10000 nM. The IC50 in experiment [2] is no less than 10000 nM.

Take `Fc1cnc(N/N=C/c2ccc(Nc3cccc(C(F)(F)F)c3)cn2)nc1N1CCOCC1`: the GI50 in experiment [1] was less than 300 nM. Also, in experiment [2], the half-inhibitory concentration (IC50) was less than 300 nM.

With `C/C(=N\Nc1ncc(F)c(N2CCOCC2)n1)c1ccc(Nc2cccc(C(F)(F)F)c2)cn1`, in experiment [1], the GI50 is less than 300 nM. In addition, the IC50 in experiment [2] was less than 300 nM.

As for `Fc1cnc(N/N=C/c2ccc(-c3cccc(C(F)(F)F)c3)cn2)nc1N1CCOCC1`, the GI50 in experiment [1] was less than 1000 nM. For the same compound, the IC50 in experiment [2] was less than 1000 nM.
